Experimental data from PMC7010297, “How the initiating ribosome copes with ppGpp to translate mRNAs” (PLoS Biology, 2020).
Values joined by “and” are separate entries in the source; they are usually repeats but may differ in a detail not shown here. Identical values can stand only once.

Tests used:
[1] = target: T1, 70S pre-IC (50S joining to 30S IC) (Escherichia coli, UniProt P0A705); experiment: 70S pre-IC formation by light scattering, stopped-flow; type: biochemical; conditions: 30S complexes formed with 0.2 mM nucleotide, mixed with 50S subunits
T1 construct: 6xHis (N); made in house
T1 sequence (P0A705 whole entry, looked up): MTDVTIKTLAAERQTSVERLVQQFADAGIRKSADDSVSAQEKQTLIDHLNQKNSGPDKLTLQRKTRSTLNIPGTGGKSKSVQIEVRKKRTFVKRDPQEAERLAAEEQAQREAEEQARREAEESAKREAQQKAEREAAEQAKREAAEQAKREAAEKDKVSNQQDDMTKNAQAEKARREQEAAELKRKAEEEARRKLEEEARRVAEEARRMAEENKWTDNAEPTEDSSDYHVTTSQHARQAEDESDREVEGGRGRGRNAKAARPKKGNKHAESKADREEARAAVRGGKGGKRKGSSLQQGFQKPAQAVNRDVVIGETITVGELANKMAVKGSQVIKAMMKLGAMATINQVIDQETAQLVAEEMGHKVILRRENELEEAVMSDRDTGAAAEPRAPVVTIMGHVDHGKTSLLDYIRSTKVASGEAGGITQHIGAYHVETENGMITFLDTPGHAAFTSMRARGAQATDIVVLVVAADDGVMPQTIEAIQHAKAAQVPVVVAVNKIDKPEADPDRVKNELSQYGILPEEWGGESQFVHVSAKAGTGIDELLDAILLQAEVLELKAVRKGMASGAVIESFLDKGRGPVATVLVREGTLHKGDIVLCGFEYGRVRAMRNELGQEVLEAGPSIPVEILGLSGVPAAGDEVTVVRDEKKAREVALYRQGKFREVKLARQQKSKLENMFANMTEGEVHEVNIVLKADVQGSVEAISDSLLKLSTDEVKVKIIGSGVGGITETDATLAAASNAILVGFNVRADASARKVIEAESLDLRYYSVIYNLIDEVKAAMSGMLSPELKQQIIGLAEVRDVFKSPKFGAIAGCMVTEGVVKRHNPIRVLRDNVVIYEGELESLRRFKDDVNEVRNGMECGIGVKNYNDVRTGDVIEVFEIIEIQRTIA
Procedure: (§1) Continuous lines indicate nonlinear regression fittings with a quadratic equation. Three measurements were performed; mean and standard deviation are plotted (S1 Data). (B) as (A) to measure the concentration dependence for each tested guanosine nucleotide at constant IF2 (1 μM). […] Continuous lines show best fits using exponential functions. (D) Formation of 70S IC as measured by Bpy-tRNAi accommodation in the P site of the ribosome; 0.1 μM 30S ICs were formed with Bpy-tRNAi and rapidly mixed with 0.3 μM 50S subunits on a stopped-flow apparatus as described in [14]. Colors are as in (C). Continuous lines show best fits using an exponential function for a single reaction step. Each stopped-flow trace results from the mean of 5 to 7 replicates.
(§2) (A) Scheme of 70S IC formation. […] Time traces were analyzed by nonlinear regression with exponential terms. […] Formation of 70S IC, as measured by Bpy-tRNAi accommodation in the absence (F) or presence of 200 μM ppGpp (G). Time traces were analyzed by nonlinear regression with one exponential term. […] Continuous lines show best fits using an exponential function for a single reaction step. All time traces are mean values of 5 to 10 replicates. Bar graphs show mean and standard errors (error bars) derived from the nonlinear regression fitting (D,E,H,I) (S1 Data).
(§3) To measure 70S pre-IC formation, a SX-20 stopped-flow instrument (Applied Photophysics, Leatherhead, UK) was set up for LS recording with an excitation wavelength of 430 nm. Scattered light was measured at an angle of 90° without a filter. Pseudo first-order conditions were approximated by using ≥3-fold excess of 50S subunits over 30S ICs; 0.2 μM 30S ICs were rapidly mixed in the instrument with 0.6 μM 50S at 25 °C. Bpy-tRNAi accommodation was measured essentially as described elsewhere. Briefly, 0.2 μM 30S ICs were formed using Bpy-tRNAi and rapidly mixed with 0.6 μM 50S at 25 °C. Fluorescence was excited at 470 nm and measured after a 495-nm longpass filter. Individual traces (6–11 traces) were averaged, and the resulting kinetic curve was approximated by single (F = A0 + A1*exp (-kapp1*t)) or double (F = A0 + A1*exp (-kapp1*t) + A2*exp (-kapp2*t)) exponential fit using Graphpad Prism 6.0 software (GraphPad, San Diego, California).

[2] = target: T2, 30S IC (30S-bound IF2, Bpy-tRNAi) (Escherichia coli, UniProt P0A705); experiment: 30S IC formation measured by MST at increasing concentrations of IF2 with guanosine nucleotides; type: binding; conditions: Fig 2A
T2 construct: 6xHis (N); made in house
T2 sequence (P0A705 whole entry, looked up): as above
Text: (§4) To monitor the interaction of initiator tRNA and 30S ribosomal subunits, we used Microscale Thermophoresis (MST) with a fluorescently labelled initiator tRNA (Bpy-tRNAi) (Fig 1B). MST allows to measure fluorescence in a constrained space. Changes on the readout derive from molecular drifts resulting from small thermal equilibrium perturbations. Upon equilibrium perturbations, the patterns of Bpy-tRNAi migration away from the observation space are related to bound and unbound states (Fig 1B). […] On the contrary, a decrease in thermophoresis indicated the dissociation of Bpy-tRNAi. The relation between fluorescence measured at both equilibriums (Ff to Fi, after and prior to the perturbation, respectively) as a function of ligand concentration allowed to determine dissociation constants of the interaction (Fig 1C).
as §1

IF2-bound 30S IC = target: T3, IF2-bound 30S IC (Escherichia coli, UniProt P0A705); experiment: 30S IC formation by MST, guanosine nucleotide titration; type: binding; conditions: for MST Average / MST Replicates (a.u.): Fig 2B;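 for MST Average: lower thermophoresis signal means Bpy-tRNAi dissociation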;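 for MST Replicates (a.u.): lower thermophoresis signal means Bpy-tRNAi dissociation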
T3 construct: 6xHis (N); made in house
T3 sequence (P0A705 whole entry, looked up): as above
Text: as §4, §1
MST was calculated from the respective fluorescence time dependencies (S3 Fig). […] Symbols as in (B). […] Continuous lines indicate nonlinear regression fittings with quadratic (B and E) or same-site competition (G) functions. Three measurements were performed; mean and standard deviations are plotted (S1 Data).

70S IC = target: T4, 70S IC (Escherichia coli, UniProt P0A705); experiment: 70S IC formation by Bpy-tRNAi accommodation, stopped-flow; type: biochemical
T4 construct: 6xHis (N); made in house
T4 sequence (P0A705 whole entry, looked up): as above
Procedure: as §1, §2, §3

SMILES: Nc1nc2c(ncn2[C@@H]2O[C@H](COP(=O)(O)OP(=O)(O)OP(=O)(O)O)[C@@H](OP(=O)(O)OP(=O)(O)O)[C@H]2O)c(=O)[nH]1 [pppGpp]
- kapp of 70S pre-IC formation (LS) [1]: 2.9 ± 0.3 s^–1
- MST Average ([2]; IF2 0.16 µM): 944.96 a.u.
- MST Replicates (a.u.) ([2]; IF2 0.16 µM, in the presence of the nucleotide): 945.84 a.u. (2×) and 943.18 a.u.
- MST Average ([2]; IF2 0.31 µM): 951.85 a.u.
- MST Replicates (a.u.) ([2]; IF2 0.31 µM): 948.28 a.u. and 951.55 a.u. and 955.73 a.u.
- MST Average ([2]; IF2 0.63 µM): 965.81 a.u.
- MST Replicates (a.u.) ([2]; IF2 0.63 µM): 963.82 a.u. and 965.27 a.u. and 968.34 a.u.
- MST Average ([2]; IF2 1.25 µM): 989.55 a.u.
- MST Replicates (a.u.) ([2]; IF2 1.25 µM): 985.24 a.u. and 988.50 a.u. and 994.92 a.u.
- MST Average ([2]; IF2 2.50 µM): 1020.82 a.u.
- MST Replicates (a.u.) ([2]; IF2 2.50 µM): 1014.01 a.u. and 1021.45 a.u. and 1027.00 a.u.
- MST Average ([2]; IF2 5.00 µM): 1015.83 a.u.
- MST Replicates (a.u.) ([2]; IF2 5.00 µM): 1011.56 a.u. and 1015.17 a.u. and 1020.77 a.u.
- MST Average (IF2-bound 30S IC; nucleotide 0.005 µM): 927.64 a.u.
- MST Replicates (a.u.) (IF2-bound 30S IC; nucleotide 0.005 µM, constant IF2 (1 μM)): 925.66 a.u. and 928.15 a.u. and 929.12 a.u.
- MST Average (IF2-bound 30S IC; nucleotide 0.01 µM): 929.62 a.u.
- MST Replicates (a.u.) (IF2-bound 30S IC; nucleotide 0.01 µM): 928.28 a.u. and 930.44 a.u. and 930.13 a.u.
- MST Average (IF2-bound 30S IC; nucleotide 0.02 µM): 931.44 a.u.
- MST Replicates (a.u.) (IF2-bound 30S IC; nucleotide 0.02 µM): 929.17 a.u. and 931.64 a.u. and 933.52 a.u.
- MST Average (IF2-bound 30S IC; nucleotide 0.04 µM): 936.26 a.u.
- MST Replicates (a.u.) (IF2-bound 30S IC; nucleotide 0.04 µM): 935.68 a.u. and 936.43 a.u. and 936.67 a.u.
- MST Average (IF2-bound 30S IC; nucleotide 0.08 µM): 942.88 a.u.
- MST Replicates (a.u.) (IF2-bound 30S IC; nucleotide 0.08 µM): 942.08 a.u. and 943.53 a.u. and 943.02 a.u.
- MST Average (IF2-bound 30S IC; nucleotide 0.16 µM): 950.27 a.u.
- MST Replicates (a.u.) (IF2-bound 30S IC; nucleotide 0.16 µM): 947.31 a.u. and 952.19 a.u. and 951.31 a.u.
- MST Average (IF2-bound 30S IC; nucleotide 0.31 µM): 960.78 a.u.
- MST Replicates (a.u.) (IF2-bound 30S IC; nucleotide 0.31 µM): 960.77 a.u. and 960.89 a.u. and 960.69 a.u.
- MST Average (IF2-bound 30S IC; nucleotide 0.63 µM): 981.69 a.u.
- MST Replicates (a.u.) (IF2-bound 30S IC; nucleotide 0.63 µM): 982.02 a.u. and 981.68 a.u. and 981.38 a.u.
- MST Average (IF2-bound 30S IC; nucleotide 1.25 µM): 1004.44 a.u.
- MST Replicates (a.u.) (IF2-bound 30S IC; nucleotide 1.25 µM): 1006.47 a.u. and 1004.17 a.u. and 1002.69 a.u.
- MST Average (IF2-bound 30S IC; nucleotide 2.50 µM): 1012.89 a.u.
- MST Replicates (a.u.) (IF2-bound 30S IC; nucleotide 2.50 µM): 1008.41 a.u. and 1015.77 a.u. and 1014.48 a.u.
- MST Average (IF2-bound 30S IC; nucleotide 5.00 µM): 1025.14 a.u.
- MST Replicates (a.u.) (IF2-bound 30S IC; nucleotide 5.00 µM): 1023.12 a.u. and 1027.23 a.u. and 1025.07 a.u.
- MST Average (IF2-bound 30S IC; nucleotide 10.00 µM): 1030.92 a.u.
- MST Replicates (a.u.) (IF2-bound 30S IC; nucleotide 10.00 µM): 1031.01 a.u. and 1031.12 a.u. and 1030.63 a.u.
- MST Average (IF2-bound 30S IC; nucleotide 20.00 µM): 1013.38 a.u.
- MST Replicates (a.u.) (IF2-bound 30S IC; nucleotide 20.00 µM): 1013.59 a.u. and 1013.77 a.u. and 1012.79 a.u.
- Kd (IF2-bound 30S IC; nucleotide titration at constant IF2 (1 μM), read-out: KD for the IF2-bound 30S IC): 500 ± 100 nM
- kapp of Bpy-tRNAi accommodation (70S IC formation) (70S IC; 30S ICs formed with 0.2 mM nucleotide, mixed with 50S subunits): 1.2 ± 0.2 s^–1
- Bpy-tRNAi accommodation slower than with GTP (70S IC; compared to GTP-bound IF2): 2 fold
